Among the data in ChEMBL document CHEMBL2150910, “Initial Optimization of a New Series of γ-Secretase Modulators Derived from a Triterpene Glycoside” (ACS Med Chem Lett, 2012) are IC50 and inhibition values, retold here.

A short description of assay [1]: Inhibition of gamma-secretase-mediated amyloid beta-42 production in diluted 2B7 conditioned media after 5 hrs.
Assay [2] is described as follows: Inhibition of gamma-secretase-mediated amyloid beta-38 production in diluted 2B7 conditioned media after 5 hrs.
Assay [3] in a line: Inhibition of gamma-secretase-mediated amyloid beta-40 production in diluted 2B7 conditioned media after 5 hrs.
The nature of assay [4]: Inhibition of gamma-secretase-mediated amyloid beta-40 production in diluted 2B7 conditioned media at 0.8 uM after 5 hrs.
A short description of assay [5]: Inhibition of gamma-secretase-mediated amyloid beta-37 production in diluted 2B7 conditioned media after 5 hrs.
Assay [6] is described as follows: Inhibition of gamma-secretase-mediated amyloid beta-40 production in diluted 2B7 conditioned media at 4 uM after 5 hrs.

As for `CC(=O)O[C@@H]([C@H]1C[C@@H](C)[C@H]2[C@H](O1)[C@H](O)[C@@]1(C)[C@@H]3CC[C@H]4C(C)(C)[C@@H](O[C@@H]5OC[C@@H](O)[C@H](O)[C@H]5O)CC[C@@]45C[C@@]35CC[C@]21C)C(C)(C)O`, the IC50 came out at 60 nM in assay [1], 84 nM in assay [2] and 1000 nM in assay [3].

In assay [1], `CC(=O)O[C@@H]([C@H]1C[C@@H](C)[C@H]2[C@H](O1)[C@H](O)[C@@]1(C)[C@@H]3CC[C@H]4C(C)(C)[C@@H](O[C@H]5CN(CCN6CCCC6)CCO5)CC[C@@]45C[C@@]35CC[C@]21C)C(C)(C)O` returned an IC50 of 110 nM. Moreover, the inhibition in assay [4] is 34%.

In the case of `CC(=O)O[C@@H]([C@H]1C[C@@H](C)C2=C(O1)[C@H](O)[C@@]1(C)[C@@H]3CC[C@H]4C(C)(C)[C@@H](O[C@@H]5OC[C@@H](O)[C@H](O)[C@H]5O)CC[C@@]45C[C@@]35CC[C@]21C)C(C)(C)O`, the IC50 in assay [1] amounted to 100 nM; in assay [2] it was 61 nM; in assay [3], 2700 nM; in assay [5], 39 nM.

Take `CC(=O)O[C@@H]([C@H]1C[C@@H](C)[C@H]2[C@H](O1)[C@H](O)[C@@]1(C)[C@@H]3CC[C@H]4C(C)(C)[C@@H](O[C@H]5CN(CCN6CCOCC6)CCO5)CC[C@@]45C[C@@]35CC[C@]21C)C(C)(C)O`: the IC50 in assay [1] stood at 160 nM. The inhibition in assay [6] is 49%.

On to `CC(=O)O[C@@H]([C@H]1C[C@@H](C)[C@H]2[C@H](O1)[C@H](O)[C@@]1(C)[C@@H]3CC[C@H]4C(C)(C)[C@@H](O[C@H]5CN(C6CCOCC6)CCO5)CC[C@@]45C[C@@]35CC[C@]21C)C(C)(C)O`, for which inhibition in assay [1] was half-maximal at 180 nM (IC50). This molecule also returned an inhibition in assay [6] of 38%.

With `CC(=O)O[C@@H]([C@H]1C[C@@H](C)[C@H]2[C@H](O1)[C@H](O)[C@@]1(C)[C@@H]3CC[C@H]4C(C)(C)[C@@H](O[C@H]5CN(CCN(C)C)CCO5)CC[C@@]45C[C@@]35CC[C@]21C)C(C)(C)O`, in assay [1], the IC50 was 90 nM. The molecule further came in with an inhibition in assay [4] of 29%.
